In paper PMC7002685, “Inhibition of vascular calcification by inositol phosphates derivatized with ethylene glycol oligomers” (Nature Communications, 2020):

Tests used:
[1] = molecular target: T1, Protein Tyrosine Kinase, Insulin Receptor (Homo sapiens, UniProt P06213); assay: Off-target 174990; type: biochemical
T1 construct: purchased Eurofins Panlabs Discovery Services Taiwan, Ltd
Experimental: (§1) The potential off-target activity of 10 µM (OEG2)2-IP4 was assessed against a panel of 87 enzymes, receptors, or ion channels that are used in standard safety pharmacology screens.
(§2) 3.2. Off-target screening assay
(§3) The experiments were conducted by a contract research organization (Eurofins Panlabs Discovery Services Taiwan, Ltd.) and details on the respective assays can be retrieved via the catalog number provided in Supplementary Table 11 from the company’s webpage
(§4) (https://www.eurofinsdiscoveryservices.com/). […]
(§5) At sacrifice the left tibia of animals of the rat model with dietary adenine/high-phosphate-induced uremia and VC was collected, fixed with 70% v/v EtOH and embedded in methyl methacrylate. The trabecular bone compartment is known to be the most metabolic active i.e. actively re-structured bone compartment in CKD. Therefore, histomorphometric and micro-computed tomography (µCT) analysis of bone was performed on the trabecular compartment. Tibial sections were Goldner-stained for histomorphometric analysis of the proximal metaphysis using the AxioVision Release 4.5 software, as […]
(§6) described previously5. […]

Cannabinoid CB1 = molecular target: T2, Cannabinoid CB1 (Homo sapiens, UniProt P21554); assay: Off-target 217030; type: binding
T2 construct: purchased Eurofins Panlabs Discovery Services Taiwan, Ltd
Experimental: as §1, §2, §3, §4, §5, §6

[2] = test system: GABAA, Flunitrazepam, Central; assay: Off-target 226600; type: binding, Rat; conditions: 10 µM
Experimental: as §1, §2
(§7) The experiments were conducted by a contract research organization (Eurofins Panlabs Discovery
(§8) Services Taiwan, Ltd.) and details on the respective assays can be retrieved via the catalog number
(§9) provided in Supplementary Table 11 from the company’s webpage
as §4

[3] = test system: GABAA, Ro-15-1788, Hippocampus; assay: Off-target 226630; type: binding, Rat; conditions: 10 µM
Experimental: as §1, §2, §7, §8, §9, §4

Glutamate, AMPA = assay: Off-target 232600; type: binding, Rat; conditions: 10 µM
Experimental: as §1, §2, §3, §4, §5, §6

[4] = test system: Glycine, Strychnine-Sensitive; assay: Off-target 239000; type: binding, Rat; conditions: 10 µM
Histamine H2 = molecular target: T3, Histamine H2 (Homo sapiens, UniProt P25021); assay: Off-target 239710; type: binding
T3 construct: purchased Eurofins Panlabs Discovery Services Taiwan, Ltd
Experimental: as §1, §2, §3, §4, §5, §6

Opiate μ (OP3, MOP) = molecular target: T4, Opiate μ (OP3, MOP) (Homo sapiens, UniProt P35372); assay: Off-target 260410; type: binding
T4 construct: purchased Eurofins Panlabs Discovery Services Taiwan, Ltd
Experimental: as §1, §2, §3, §4, §5, §6

[5] = molecular target: T5, Platelet Activating Factor (PAF) (Homo sapiens, UniProt P25105); assay: Off-target 265010; type: binding
T5 construct: purchased Eurofins Panlabs Discovery Services Taiwan, Ltd
Experimental: as §1, §2, §7, §8, §9, §4

[6] = molecular target: T6, Serotonin (5-Hydroxytryptamine) 5-HT2C (Homo sapiens, UniProt P28335); assay: Off-target 271800; type: binding
T6 construct: purchased Eurofins Panlabs Discovery Services Taiwan, Ltd
Experimental: as §1, §2, §3, §4, §5, §6

Transporter, Adenosine = assay: Off-target 202000; type: binding, Guinea pig; conditions: 10 µM
Experimental: as §1, §2, §7, §8, §9, §4

[7] = Plasma calcium after s.c. administration in healthy rats; type: in vivo, rat; conditions: 50 mg/kg s.c., acute or sub-chronic (7 days), at tmax of 30 min
vascular calcification = assay: Vitamin D3 (oral) + warfarin diet rat model of VC

T4 sequence (P35372 whole entry): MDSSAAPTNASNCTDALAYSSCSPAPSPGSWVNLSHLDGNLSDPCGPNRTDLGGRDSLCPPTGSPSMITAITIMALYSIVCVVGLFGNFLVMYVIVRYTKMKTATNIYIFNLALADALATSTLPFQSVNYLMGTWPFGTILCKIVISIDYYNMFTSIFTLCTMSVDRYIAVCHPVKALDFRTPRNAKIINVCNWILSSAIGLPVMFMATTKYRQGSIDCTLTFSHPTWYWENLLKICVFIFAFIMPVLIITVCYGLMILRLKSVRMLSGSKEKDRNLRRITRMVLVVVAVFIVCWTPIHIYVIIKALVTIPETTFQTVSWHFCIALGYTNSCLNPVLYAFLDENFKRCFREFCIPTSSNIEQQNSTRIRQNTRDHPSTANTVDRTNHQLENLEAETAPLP
T6 sequence (P28335 33-458): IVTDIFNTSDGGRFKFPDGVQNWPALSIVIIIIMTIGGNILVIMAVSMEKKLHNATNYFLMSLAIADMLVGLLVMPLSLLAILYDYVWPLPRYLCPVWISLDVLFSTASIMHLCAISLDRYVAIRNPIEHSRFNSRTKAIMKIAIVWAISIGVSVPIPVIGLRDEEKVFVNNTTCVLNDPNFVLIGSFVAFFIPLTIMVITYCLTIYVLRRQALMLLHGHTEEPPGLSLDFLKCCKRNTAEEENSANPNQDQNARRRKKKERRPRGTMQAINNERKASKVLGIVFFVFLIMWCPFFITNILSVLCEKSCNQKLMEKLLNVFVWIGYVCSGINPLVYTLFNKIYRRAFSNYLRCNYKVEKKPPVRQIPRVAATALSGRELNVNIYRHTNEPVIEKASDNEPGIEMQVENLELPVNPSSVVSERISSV
T3 sequence (P25021 whole entry): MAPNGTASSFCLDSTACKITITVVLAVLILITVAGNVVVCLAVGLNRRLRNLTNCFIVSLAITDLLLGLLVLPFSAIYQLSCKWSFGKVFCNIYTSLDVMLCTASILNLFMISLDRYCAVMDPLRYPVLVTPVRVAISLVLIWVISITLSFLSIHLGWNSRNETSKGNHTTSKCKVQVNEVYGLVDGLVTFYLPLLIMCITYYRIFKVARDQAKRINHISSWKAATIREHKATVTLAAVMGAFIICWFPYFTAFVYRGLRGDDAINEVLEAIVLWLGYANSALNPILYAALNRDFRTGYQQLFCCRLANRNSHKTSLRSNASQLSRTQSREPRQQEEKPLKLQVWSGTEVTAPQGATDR
T2 sequence (P21554 whole entry): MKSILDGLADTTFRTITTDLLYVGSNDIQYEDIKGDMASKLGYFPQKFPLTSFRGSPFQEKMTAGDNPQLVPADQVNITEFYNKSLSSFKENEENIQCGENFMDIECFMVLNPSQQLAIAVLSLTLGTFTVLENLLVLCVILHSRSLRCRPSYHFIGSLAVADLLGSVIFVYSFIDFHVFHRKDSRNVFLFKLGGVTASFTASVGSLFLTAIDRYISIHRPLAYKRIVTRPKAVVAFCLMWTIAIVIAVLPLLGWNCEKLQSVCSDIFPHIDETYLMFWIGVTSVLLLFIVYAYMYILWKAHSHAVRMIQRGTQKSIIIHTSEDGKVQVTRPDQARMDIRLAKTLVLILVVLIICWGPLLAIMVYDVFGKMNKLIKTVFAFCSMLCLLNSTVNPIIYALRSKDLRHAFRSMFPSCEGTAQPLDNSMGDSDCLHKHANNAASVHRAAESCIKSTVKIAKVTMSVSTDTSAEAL
T1 sequence (P06213 28-1382): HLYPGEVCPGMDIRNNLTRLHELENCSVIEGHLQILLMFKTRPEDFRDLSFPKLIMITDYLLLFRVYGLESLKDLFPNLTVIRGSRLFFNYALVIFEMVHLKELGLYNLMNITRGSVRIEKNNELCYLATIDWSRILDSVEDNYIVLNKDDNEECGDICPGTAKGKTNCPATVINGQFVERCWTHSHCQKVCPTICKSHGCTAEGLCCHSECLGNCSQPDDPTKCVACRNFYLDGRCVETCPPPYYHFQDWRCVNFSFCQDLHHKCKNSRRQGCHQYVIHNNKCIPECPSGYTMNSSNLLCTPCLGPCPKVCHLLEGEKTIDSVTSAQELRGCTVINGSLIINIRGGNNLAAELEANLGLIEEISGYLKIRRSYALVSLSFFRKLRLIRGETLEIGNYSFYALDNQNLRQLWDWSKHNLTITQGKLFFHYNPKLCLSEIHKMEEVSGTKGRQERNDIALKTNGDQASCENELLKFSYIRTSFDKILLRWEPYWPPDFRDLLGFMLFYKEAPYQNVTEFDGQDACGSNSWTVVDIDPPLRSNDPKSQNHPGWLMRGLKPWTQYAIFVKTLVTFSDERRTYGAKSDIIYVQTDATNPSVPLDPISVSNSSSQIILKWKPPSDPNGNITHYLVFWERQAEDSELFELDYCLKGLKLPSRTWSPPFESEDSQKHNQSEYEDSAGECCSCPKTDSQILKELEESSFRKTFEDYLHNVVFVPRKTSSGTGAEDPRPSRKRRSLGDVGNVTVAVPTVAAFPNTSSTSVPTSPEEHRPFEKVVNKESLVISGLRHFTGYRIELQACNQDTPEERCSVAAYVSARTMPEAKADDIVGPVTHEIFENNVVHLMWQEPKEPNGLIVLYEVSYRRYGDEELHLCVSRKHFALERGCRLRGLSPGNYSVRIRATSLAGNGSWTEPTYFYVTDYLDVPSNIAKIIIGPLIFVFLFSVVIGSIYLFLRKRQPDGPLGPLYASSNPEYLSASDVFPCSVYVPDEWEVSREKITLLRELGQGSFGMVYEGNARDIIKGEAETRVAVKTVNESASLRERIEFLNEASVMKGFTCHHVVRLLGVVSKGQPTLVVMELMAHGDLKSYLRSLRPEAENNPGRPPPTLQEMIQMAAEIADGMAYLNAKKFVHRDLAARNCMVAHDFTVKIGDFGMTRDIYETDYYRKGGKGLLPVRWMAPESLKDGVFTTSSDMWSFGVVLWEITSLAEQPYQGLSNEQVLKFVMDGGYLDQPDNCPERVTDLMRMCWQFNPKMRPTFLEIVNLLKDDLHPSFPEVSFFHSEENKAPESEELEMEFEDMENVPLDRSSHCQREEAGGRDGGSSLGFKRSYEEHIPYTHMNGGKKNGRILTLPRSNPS
T5 sequence (P25105 whole entry): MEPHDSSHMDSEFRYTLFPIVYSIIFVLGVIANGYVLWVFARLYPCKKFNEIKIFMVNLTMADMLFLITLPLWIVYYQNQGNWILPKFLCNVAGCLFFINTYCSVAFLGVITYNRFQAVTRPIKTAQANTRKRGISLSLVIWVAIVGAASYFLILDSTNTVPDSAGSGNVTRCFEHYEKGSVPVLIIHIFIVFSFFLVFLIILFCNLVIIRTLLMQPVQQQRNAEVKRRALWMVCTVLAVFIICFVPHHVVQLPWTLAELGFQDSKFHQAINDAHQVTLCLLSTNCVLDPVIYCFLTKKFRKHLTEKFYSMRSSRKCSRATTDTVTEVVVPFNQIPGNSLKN

## COCCOCCO[C@@H]1[C@@H](OP(=O)(O)O)[C@H](OCCOCCOC)[C@@H](OP(=O)(O)O)[C@@H](OP(=O)(O)O)[C@H]1OP(=O)(O)O [(OEG2)2-IP4, 4,6-Di-O-(methoxy-diethyleneglycol)-myo-inositol-1,2,3,5-tetrakis(phosphate)]
[1]
  inhibition at 10 µM: -22%
Cannabinoid CB1
  inhibition at 10 µM: -7%
[2]
  % Inhibition: -7%
[3]
  % Inhibition: 5%
Glutamate, AMPA
  % Inhibition: 8%
[4]
  % Inhibition: -2%
Histamine H2
  inhibition at 10 µM: -6%
Opiate μ (OP3, MOP)
  inhibition at 10 µM: 11%
[5]
  inhibition at 10 µM: -7%
[6]
  inhibition at 10 µM: -5%
Transporter, Adenosine
  % Inhibition: -14%
[7]
  lowering of serum calcium: No significant lowering of serum calcium
Vascular calcification; 1x12.5, Day 0
  animals alive (Figure 5d): 12
  survival (Figure 5d): 100%
Vascular calcification; 1x12.5, Day 4.99
  animals alive (Figure 5d): 12
  survival (Figure 5d): 100%
Vascular calcification; 1x12.5, Day 5.01
  animals alive (Figure 5d): 11
  survival (Figure 5d): 92%
Vascular calcification; 1x12.5, Day 5.99
  animals alive (Figure 5d): 11
  survival (Figure 5d): 92%
Vascular calcification; 1x12.5, Day 6.01
  animals alive (Figure 5d): 9
  survival (Figure 5d): 75%
Vascular calcification; 1x12.5, Day 6.99
  animals alive (Figure 5d): 9
  survival (Figure 5d): 75%
Vascular calcification; 1x12.5, Day 7.01
  animals alive (Figure 5d): 7
  survival (Figure 5d): 58%
Vascular calcification; 1x12.5, Day 7.99
  animals alive (Figure 5d): 7
  survival (Figure 5d): 58%
Vascular calcification; 1x12.5, Day 8.01
  animals alive (Figure 5d): 7
  survival (Figure 5d): 58%
Vascular calcification; 1x12.5, Day 8.1
  animals alive (Figure 5d): 7
  survival (Figure 5d): 58%
Vascular calcification; 1x12.5 to 2x50 mg/kg/day
  calcification in the femoral artery: dose-dependently prevents calcification in the femoral artery
Vascular calcification; 1x25, Day 0
  animals alive (Figure 5d): 12
  survival (Figure 5d): 100%
Vascular calcification; 1x25, Day 4.99
  animals alive (Figure 5d): 12
  survival (Figure 5d): 100%
Vascular calcification; 1x25, Day 5.01
  animals alive (Figure 5d): 12
  survival (Figure 5d): 100%
Vascular calcification; 1x25, Day 5.99
  animals alive (Figure 5d): 12
  survival (Figure 5d): 100%
Vascular calcification; 1x25, Day 6.01
  animals alive (Figure 5d): 10
  survival (Figure 5d): 83%
Vascular calcification; 1x25, Day 6.99
  animals alive (Figure 5d): 10
  survival (Figure 5d): 83%
Vascular calcification; 1x25, Day 7.01
  animals alive (Figure 5d): 8
  survival (Figure 5d): 67%
Vascular calcification; 1x25, Day 7.99
  animals alive (Figure 5d): 8
  survival (Figure 5d): 67%
Vascular calcification; 1x25, Day 8.01
  animals alive (Figure 5d): 8
  survival (Figure 5d): 67%
Vascular calcification; 1x25, Day 8.1
  animals alive (Figure 5d): 8
  survival (Figure 5d): 67%
Vascular calcification; 1x50, Day 0
  animals alive (Figure 5d): 19
  survival (Figure 5d): 100%
Vascular calcification; 1x50, Day 4.99
  animals alive (Figure 5d): 19
  survival (Figure 5d): 100%
Vascular calcification; 1x50, Day 5.01
  animals alive (Figure 5d): 19
  survival (Figure 5d): 100%
Vascular calcification; 1x50, Day 5.99
  animals alive (Figure 5d): 19
  survival (Figure 5d): 100%
Vascular calcification; 1x50, Day 6.01
  animals alive (Figure 5d): 19
  survival (Figure 5d): 100%
Vascular calcification; 1x50, Day 6.99
  animals alive (Figure 5d): 19
  survival (Figure 5d): 100%
Vascular calcification; 1x50, Day 7.01
  animals alive (Figure 5d): 17
  survival (Figure 5d): 89%
Vascular calcification; 1x50, Day 7.99
  animals alive (Figure 5d): 17
  survival (Figure 5d): 89%
Vascular calcification; 1x50, Day 8.01
  animals alive (Figure 5d): 15
  survival (Figure 5d): 79%
Vascular calcification; 1x50, Day 8.1
  animals alive (Figure 5d): 15
  survival (Figure 5d): 79%
Vascular calcification; 2 x 25 mg/kg s.c.
  survival: 100%
Vascular calcification; 2x25, Day 0
  animals alive (Figure 5d): 18
  survival (Figure 5d): 100%
Vascular calcification; 2x25, Day 4.99
  animals alive (Figure 5d): 18
  survival (Figure 5d): 100%
Vascular calcification; 2x25, Day 5.01
  animals alive (Figure 5d): 18
  survival (Figure 5d): 100%
Vascular calcification; 2x25, Day 5.99
  animals alive (Figure 5d): 18
  survival (Figure 5d): 100%
Vascular calcification; 2x25, Day 6.01
  animals alive (Figure 5d): 18
  survival (Figure 5d): 100%
Vascular calcification; 2x25, Day 6.99
  animals alive (Figure 5d): 18
  survival (Figure 5d): 100%
Vascular calcification; 2x25, Day 7.01
  animals alive (Figure 5d): 18
  survival (Figure 5d): 100%
Vascular calcification; 2x25, Day 7.99
  animals alive (Figure 5d): 18
  survival (Figure 5d): 100%
Vascular calcification; 2x25, Day 8.01
  animals alive (Figure 5d): 18
  survival (Figure 5d): 100%
Vascular calcification; 2x25, Day 8.1
  animals alive (Figure 5d): 18
  survival (Figure 5d): 100%
Vascular calcification; 2x50, Day 0
  animals alive (Figure 5d): 19
  survival (Figure 5d): 100%
Vascular calcification; 2x50, Day 4.99
  animals alive (Figure 5d): 19
  survival (Figure 5d): 100%
Vascular calcification; 2x50, Day 5.01
  animals alive (Figure 5d): 19
  survival (Figure 5d): 100%
Vascular calcification; 2x50, Day 5.99
  animals alive (Figure 5d): 19
  survival (Figure 5d): 100%
Vascular calcification; 2x50, Day 6.01
  animals alive (Figure 5d): 19
  survival (Figure 5d): 100%
Vascular calcification; 2x50, Day 6.99
  animals alive (Figure 5d): 19
  survival (Figure 5d): 100%
Vascular calcification; 2x50, Day 7.01
  animals alive (Figure 5d): 17
  survival (Figure 5d): 89%
Vascular calcification; 2x50, Day 7.99
  animals alive (Figure 5d): 17
  survival (Figure 5d): 89%
Vascular calcification; 2x50, Day 8.01
  animals alive (Figure 5d): 16
  survival (Figure 5d): 84%
Vascular calcification; 2x50, Day 8.1
  animals alive (Figure 5d): 16
  survival (Figure 5d): 84%
Vascular calcification; 2 × 25 mg/kg/day
  bulk calcium in carotid artery and femoral artery: significant reduction in bulk calcium
Vascular calcification; 2 × 25 mg/kg/day s.c. (0/18)
  Mortality rate: 0%
